Calls of active or inactive are those of the source. The calls are words filed in the database; no cut-off is given here.
Legend:
Chlamydia trachomatis [1] = assay: Bactericidal activity against Chlamydia trachomatis serovar L2 infected in human HeLa cells assessed as growth inhibition compound treated at 200 uM for 1 hr prior infection measured 24 hrs post infection by microscopy; format: functional, organism-based
HeLa = assay: Cytotoxicity against human HeLa cells at 5 to 200 uM after 24 to 48 hrs by trypan blue exclusion assay; format: cell-based
[2] = Cytotoxicity against mouse fibroblasts at 5 to 200 uM after 24 to 48 hrs by trypan blue exclusion assay; format: cell-based; conditions: fibroblast
[3] = Iron chelating activity of the compound at pH 7.4 by UV-visible spectrophotometric titration; format: physicochemical
Chlamydia trachomatis [4] = assay: Bactericidal activity against Chlamydia trachomatis serovar L2 infected in human HeLa cells assessed as growth inhibition compound treated for 1 hr prior infection measured 24 hrs post infection by microscopy; format: functional, organism-based
Chlamydia trachomatis [5] = assay: Bactericidal activity against Chlamydia trachomatis serovar L2 infected in human HeLa cells assessed as reduction in inclusion forming unit compound treated at 5 to 25 uM for 1 hr prior infection measured 24 hrs post infection by immunofluorescence assay in presence of 200 uM iron citrate; format: functional, organism-based
Chlamydia trachomatis [6] = assay: Bactericidal activity against Chlamydia trachomatis serovar L2 infected in human HeLa cells assessed as growth inhibition compound treated at 100 to 200 uM for 1 hr prior infection measured 24 hrs post infection by microscopy in presence of 200 uM iron citrate; format: functional, organism-based
Chlamydia trachomatis [7] = assay: Bactericidal activity against Chlamydia trachomatis serovar L2 infected in human HeLa cells assessed as growth inhibition compound treated at 5 to 200 uM for 1 hr prior infection measured 24 hrs post infection by microscopy; format: functional, organism-based
Chlamydia trachomatis [8] = assay: Bactericidal activity against Chlamydia trachomatis serovar L2 infected in human HeLa cells assessed as growth inhibition compound treated at 50 to 200 uM for 1 hr prior infection measured 24 hrs post infection by microscopy; format: functional, organism-based
Chlamydia trachomatis [9] = assay: Bacteriostatic activity against Chlamydia trachomatis serovar L2 infected in human HeLa cells assessed as growth inhibition compound treated at >100 uM for 1 hr prior infection measured 24 hrs post infection by microscopy in presence of 200 uM iron citrate; format: functional, organism-based
Chlamydia trachomatis [10] = assay: Bacteriostatic activity against Chlamydia trachomatis serovar L2 infected in human HeLa cells assessed as growth inhibition compound treated at >100 uM for 1 hr prior infection measured 24 hrs post infection by microscopy; format: functional, organism-based

Activity [3]	SMILES	growth inhibition (GI) (Chlamydia trachomatis [1])	Activity (HeLa)	Activity [2]	growth inhibition (GI) (Chlamydia trachomatis [4])	Activity (Chlamydia trachomatis [5])	growth inhibition (GI) (Chlamydia trachomatis [6])	growth inhibition (GI) (Chlamydia trachomatis [7])	growth inhibition (GI) (Chlamydia trachomatis [8])	growth inhibition (GI) (Chlamydia trachomatis [9])	growth inhibition (GI) (Chlamydia trachomatis [10])
Active	O=C(N[C@@H]1CON(CCOC(=O)c2cccc(O)c2O)C1=O)c1cccc(O)c1O	Active	Non-toxic	Non-toxic	Dose-dependent effect						
Active	O=C(NCCOC1=NOC[C@H]1NC(=O)c1cccc(O)c1O)c1cccc(O)c1O	Active	Non-toxic	Non-toxic		Active					
Not Active	O=C(NCCN1OC[C@@H](NC(=O)c2ccc3cccc(O)c3n2)C1=O)c1ccc2cccc(O)c2n1		Non-toxic	Non-toxic	Dose-dependent effect	Active	Active	Active			
Active	O=C(N[C@@H]1CON(CCCCOC(=O)c2cccc(O)c2O)C1=O)c1cccc(O)c1O		Non-toxic	Non-toxic	Dose-dependent effect				Active		
Not Active	O=C(NCCN1OC[C@@H](NC(=O)c2ccc3ccccc3n2)C1=O)c1ccc2ccccc2n1		Non-toxic	Non-toxic	Dose-dependent effect	Active		inactive			

Continued, compound first:

SMILES	Activity [3]	growth inhibition (GI) (Chlamydia trachomatis [1])	Activity (HeLa)	Activity [2]	growth inhibition (GI) (Chlamydia trachomatis [4])	Activity (Chlamydia trachomatis [5])	growth inhibition (GI) (Chlamydia trachomatis [6])	growth inhibition (GI) (Chlamydia trachomatis [7])	growth inhibition (GI) (Chlamydia trachomatis [8])	growth inhibition (GI) (Chlamydia trachomatis [9])	growth inhibition (GI) (Chlamydia trachomatis [10])
COc1cccc(C(=O)N[C@@H]2CON(CCc3c[nH]cn3)C2=O)c1OC			Non-toxic	Non-toxic	Dose-dependent effect			inactive			
CC(=O)N(O)CCCCCNC(=O)CCC(=O)N(O)CCCCCNC(=O)CCC(=O)N(O)CCCCCN										inactive	Active
O=C(NCCN1OC[C@@H](NC(=O)c2cccc(O)c2O)C1=O)c1cccc(O)c1O	Active		Non-toxic	Non-toxic	Dose-dependent effect	Active			Active		
O=C(N[C@@H]1CON(CCc2c[nH]cn2)C1=O)c1cccc(O)c1O			Non-toxic	Non-toxic	Dose-dependent effect			Active			
N[C@@H]1CONC1=O						Active					
